This note sets out measurements from patent publication US20240336654A1, “ANTIMICROBIAL PEPTIDOMIMETICS” (SPEXIS AG, priority 2021, published 2024).

What all share (format): cell-based
For data set [1], the system named is human red blood cells (hRBC). Particulars: red cells of human, 1 h, 200 μg/mL. An outline of the steps:
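Percent hemolysis derived from OD540 of supernatants relative to full lysis by 2.5% Triton X-100 (PBS baseline). Washed fresh human erythrocytes (20% v/v) were exposed to 200 μg/mL peptide for 1 h at 37 °C with shaking.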

Data set [2] deals with Escherichia coli MCR-1 Af 45. Particulars: MCR-1 Af 45. An outline of the steps: (§1)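 The MIC is the lowest peptide concentration, in μg/mL, with no visible growth after 18-20 h incubation at 35 °C. Serial two-fold peptide dilutions in water with 0.002% P-80 final were added to bacteria in cation-adjusted MHII broth, about 5×10^5 CFU/mL, following modified CLSI microdilution.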

The test system of data set [3] is Klebsiella pneumoniae SSI3010. The note with it: SSI3010. An outline of the steps: as §1
The test system of data set [4] is Escherichia coli ATCC 25922. Particulars: ATCC 25922. An outline of the steps: as §1

Where a SMILES comes first, the peptide text is derived from it. Bridges are numbered along the chain shown (N, C = ends). [ ]: non-standard residue; d: D form. The star is where a group is joined. Val(Nα-amidino) = CC(C)[C@H](NC(=N)N)C(=O)*; Hyp = O=C(O)[C@@H]1C[C@@H](O)CN1; Cit = NC(=O)NCCC[C@H](N)C(=O)O; Pen = CC(C)(S)[C@H](N)C(=O)O; dDab = NCC[C@@H](N)C(=O)O; Dab = NCC[C@H](N)C(=O)O

Turning to `CC[C@H](C)[C@H](NC(=O)[C@@H]1C[C@@H](O)CN1C(=O)[C@@H](NC(=N)N)C(C)C)C(=O)N[C@H]1CCNC(=O)CC[C@@H](C(=O)N[C@@H](Cc2ccc(O)cc2)C(=O)O)NC(=O)[C@H](CCN)NC(=O)[C@H](CCN)NC(=O)[C@H]([C@@H](C)O)NC(=O)[C@@H](CCN)NC(=O)[C@H]([C@@H](C)O)NC(=O)[C@H](CCN)NC(=O)[C@H](CCCNC(=N)N)NC(=O)[C@H](CC(N)=O)NC(=O)[C@H]([C@@H](C)O)NC(=O)[C@H](Cc2ccc(O)cc2)NC1=O` [Example 113, Gua-Val-Hyp-Ile-Dab-Tyr-Thr-Asn-Arg-Dab-Thr-^DDab-Thr-Dab-Dab-Glu-Tyr] ({Val(Nα-amidino)}-[Hyp]I[Dab]YTNR[Dab]T[dDab]T[Dab][Dab]EY-OH; lactam 3-14), in data set [1], the “Hemolysis at 0.2 g/L” value was <1%. Also, in data set [2], the “Escherichia coli MCR-1 Af45 MIC” value was 0.125 µg/mL. Also, the “Klebsiella pneumoniae SSI3010 MIC” value in data set [3] was found to be 0.25 µg/mL. Moreover, the “Escherichia coli ATCC 25922 MIC” value in data set [4] is 0.125 µg/mL.

Take `CC[C@H](C)[C@H](NC(=O)[C@@H]1C[C@@H](O)CN1C(=O)[C@@H](NC(=N)N)C(C)C)C(=O)N[C@H]1CCNC(=O)CC[C@@H](C(=O)N[C@@H](Cc2ccc(O)cc2)C(=O)O)NC(=O)[C@H](CCN)NC(=O)[C@H](CCN)NC(=O)[C@H](CCCNC(N)=O)NC(=O)[C@@H](CCN)NC(=O)[C@H]([C@@H](C)O)NC(=O)[C@H](CCN)NC(=O)[C@H](CCCNC(=N)N)NC(=O)[C@H](CC(N)=O)NC(=O)[C@H]([C@@H](C)O)NC(=O)[C@H](Cc2ccc(O)cc2)NC1=O` [Example 114, Gua-Val-Hyp-Ile-Dab-Tyr-Thr-Asn-Arg-Dab-Thr-^DDab-Cit-Dab-Dab-Glu-Tyr] ({Val(Nα-amidino)}-[Hyp]I[Dab]YTNR[Dab]T[dDab][Cit][Dab][Dab]EY-OH; lactam 3-14): in data set [1], the “Hemolysis at 0.2 g/L” value was <1%. Also, the “Escherichia coli MCR-1 Af45 MIC” value in data set [2] worked out at 0.125 µg/mL. In addition, the “Klebsiella pneumoniae SSI3010 MIC” value in data set [3] was 0.5 µg/mL. The “Escherichia coli ATCC 25922 MIC” value in data set [4] came to 0.125 µg/mL.

`CC[C@H](C)[C@H](NC(=O)[C@@H]1C[C@@H](O)CN1C(=O)[C@@H](NC(=N)N)C(C)C)C(=O)N[C@@H]1C(=O)N[C@@H](Cc2ccc(O)cc2)C(=O)N[C@@H](CCCNC(N)=O)C(=O)N[C@@H](CC(N)=O)C(=O)N[C@@H](CCCNC(=N)N)C(=O)N[C@@H](CCN)C(=O)N[C@@H]([C@@H](C)O)C(=O)N[C@H](CCN)C(=O)N[C@@H](CCCCN)C(=O)N[C@@H](CCN)C(=O)N[C@@H](CCN)C(=O)N[C@H](C(=O)N[C@@H](Cc2ccc(O)cc2)C(=O)O)CSSC1(C)C` [Example 115, Gua-Val-Hyp-Ile-Pen-Tyr-Cit-Asn-Arg-Dab-Thr-^DDab-Lys-Dab-Dab-Cys-Tyr] ({Val(Nα-amidino)}-[Hyp]I[Pen]Y[Cit]NR[Dab]T[dDab]K[Dab][Dab]CY-OH; disulfide 3-14): the “Hemolysis at 0.2 g/L” value in data set [1] is on record as <1%. The “Escherichia coli MCR-1 Af45 MIC” value in data set [2] turned out to be 0.0625 µg/mL. Also, the “Klebsiella pneumoniae SSI3010 MIC” value in data set [3] is 0.125 µg/mL. The “Escherichia coli ATCC 25922 MIC” value in data set [4] was determined as 0.125 µg/mL.

In the case of `CC[C@H](C)[C@H](NC(=O)[C@@H]1C[C@@H](O)CN1C(=O)[C@@H](NC(=N)N)C(C)C)C(=O)N[C@H]1CCNC(=O)CC[C@@H](C(=O)N[C@@H](Cc2ccc(O)cc2)C(=O)O)NC(=O)[C@H](CCN)NC(=O)[C@H](CCN)NC(=O)[C@H](CCCCN)NC(=O)[C@@H](CCN)NC(=O)[C@H]([C@@H](C)O)NC(=O)[C@H](CCN)NC(=O)[C@H](CCCNC(=N)N)NC(=O)[C@H](CC(N)=O)NC(=O)[C@H](CCCNC(N)=O)NC(=O)[C@H](Cc2ccc(O)cc2)NC1=O` [Example 116, Gua-Val-Hyp-Ile-Dab-Tyr-Cit-Asn-Arg-Dab-Thr-^DDab-Lys-Dab-Dab-Glu-Tyr] ({Val(Nα-amidino)}-[Hyp]I[Dab]Y[Cit]NR[Dab]T[dDab]K[Dab][Dab]EY-OH; lactam 3-14), the “Hemolysis at 0.2 g/L” value in data set [1] is reported as <1%. In addition, the “Escherichia coli MCR-1 Af45 MIC” value in data set [2] came out at 0.0625 µg/mL. The “Klebsiella pneumoniae SSI3010 MIC” value in data set [3] is 0.125 µg/mL. Moreover, the “Escherichia coli ATCC 25922 MIC” value in data set [4] turned out to be 0.0625 µg/mL.
